Test results reported in ChEMBL document CHEMBL3862012, “Methylene versus carbonyl bridge in the structure of new tubulin polymerization inhibitors with tricyclic A-rings” (Bioorg Med Chem, 2016).

Experiments:
Ovis aries = organism: Ovis aries; test: Inhibition of sheep brain tubulin polymerization at 100 uM by DAPI staining-based fluorimetric method relative to control
[1] = Cytotoxicity against human K562 cells assessed as growth inhibition at 10 uM after 48 hrs by SRB assay relative to control; type: functional; conditions: K562, 48 h, read-out: GI
[2] = Cytotoxicity against human MOLT4 cells assessed as growth inhibition at 10 uM after 48 hrs by SRB assay relative to control; type: functional; conditions: MOLT-4, 48 h, read-out: GI
[3] = Cytotoxicity against human A549 cells assessed as growth inhibition at 10 uM after 48 hrs by SRB assay relative to control; type: functional; conditions: A549, 48 h, read-out: GI
[4] = Cytotoxicity against human EKVX cells assessed as growth inhibition at 10 uM after 48 hrs by SRB assay relative to control; type: functional; conditions: read-out: GI
[5] = Cytotoxicity against human HOP62 cells assessed as growth inhibition at 10 uM after 48 hrs by SRB assay relative to control; type: functional; conditions: HOP-62, 48 h, read-out: GI
[6] = Cytotoxicity against human NCI-H460 cells assessed as growth inhibition at 10 uM after 48 hrs by SRB assay relative to control; type: functional; conditions: NCI-H460, 48 h, read-out: GI
[7] = Cytotoxicity against human SF539 cells assessed as growth inhibition at 10 uM after 48 hrs by SRB assay relative to control; type: functional; conditions: SF-539, 48 h, read-out: GI
[8] = Cytotoxicity against human SNB19 cells assessed as growth inhibition at 10 uM after 48 hrs by SRB assay relative to control; type: functional; conditions: SNB-19, 48 h, read-out: GI
[9] = Cytotoxicity against human SNB75 cells assessed as growth inhibition at 10 uM after 48 hrs by SRB assay relative to control; type: functional; conditions: SNB-75, 48 h, read-out: GI
[10] = Cytotoxicity against human MDA-MB-435 cells assessed as growth inhibition at 10 uM after 48 hrs by SRB assay relative to control; type: functional; conditions: MDA-MB-435, 48 h, read-out: GI
[11] = Cytotoxicity against human SK-MEL-2 cells assessed as growth inhibition at 10 uM after 48 hrs by SRB assay relative to control; type: functional; conditions: SK-MEL-2, 48 h, read-out: GI
[12] = Cytotoxicity against human SK-MEL-28 cells assessed as growth inhibition at 10 uM after 48 hrs by SRB assay relative to control; type: functional; conditions: SK-MEL-28, 48 h, read-out: GI
[13] = Cytotoxicity against human UACC257 cells assessed as growth inhibition at 10 uM after 48 hrs by SRB assay relative to control; type: functional; conditions: UACC-257, 48 h, read-out: GI
[14] = Cytotoxicity against human OVCAR3 cells assessed as growth inhibition at 10 uM after 48 hrs by SRB assay relative to control; type: functional; conditions: OVCAR-3, 48 h, read-out: GI
[15] = Cytotoxicity against human OVCAR4 cells assessed as growth inhibition at 10 uM after 48 hrs by SRB assay relative to control; type: functional; conditions: OVCAR-4, 48 h, read-out: GI
[16] = Cytotoxicity against human A498 cells assessed as growth inhibition at 10 uM after 48 hrs by SRB assay relative to control; type: functional; conditions: A498, 48 h, read-out: GI
[17] = Cytotoxicity against human RXF393 cells assessed as growth inhibition at 10 uM after 48 hrs by SRB assay relative to control; type: functional; conditions: RXF 393, 48 h, read-out: GI
[18] = Cytotoxicity against human Hs 578T cells assessed as growth inhibition at 10 uM after 48 hrs by SRB assay relative to control; type: functional; conditions: read-out: GI
[19] = Cytotoxicity against human HCT116 cells assessed as growth inhibition after 48 hrs by SRB assay; type: functional; conditions: HCT-116, 48 h
[20] = Cytotoxicity against human HT-29 cells assessed as growth inhibition after 48 hrs by SRB assay; type: functional; conditions: HT-29, 48 h
[21] = Cytotoxicity against human OVCAR5 cells assessed as growth inhibition after 48 hrs by SRB assay; type: functional; conditions: OVCAR-5, 48 h
[22] = Cytotoxicity against human SN12C cells assessed as growth inhibition after 48 hrs by SRB assay; type: functional
[23] = Cytotoxicity against human OVCAR8 cells assessed as growth inhibition at 10 uM after 48 hrs by SRB assay relative to control; type: functional; conditions: OVCAR-8, 48 h, read-out: GI
[24] = Cytotoxicity against human HOP62 cells assessed as growth inhibition after 48 hrs by SRB assay; type: functional; conditions: HOP-62, 48 h
[25] = Cytotoxicity against human HOP92 cells assessed as growth inhibition after 48 hrs by SRB assay; type: functional; conditions: HOP-92, 48 h
[26] = Cytotoxicity against human NCI-H23 cells assessed as growth inhibition after 48 hrs by SRB assay; type: functional; conditions: NCI-H23, 48 h
[27] = Cytotoxicity against human SF268 cells assessed as growth inhibition after 48 hrs by SRB assay; type: functional; conditions: SF-268, 48 h
[28] = Cytotoxicity against human SF539 cells assessed as growth inhibition after 48 hrs by SRB assay; type: functional; conditions: SF-539, 48 h
[29] = Cytotoxicity against human SNB75 cells assessed as growth inhibition after 48 hrs by SRB assay; type: functional; conditions: SNB-75, 48 h
[30] = Cytotoxicity against human U251 cells assessed as growth inhibition after 48 hrs by SRB assay; type: functional; conditions: U-251, 48 h
[31] = Cytotoxicity against human UACC62 cells assessed as growth inhibition after 48 hrs by SRB assay; type: functional; conditions: UACC-62, 48 h
[32] = Cytotoxicity against human SK-MEL-5 cells assessed as growth inhibition after 48 hrs by SRB assay; type: functional; conditions: SK-MEL-5, 48 h
[33] = Cytotoxicity against human OVCAR3 cells assessed as growth inhibition after 48 hrs by SRB assay; type: functional; conditions: OVCAR-3, 48 h
[34] = Cytotoxicity against human OVCAR4 cells assessed as growth inhibition after 48 hrs by SRB assay; type: functional; conditions: OVCAR-4, 48 h
[35] = Cytotoxicity against human NCI-ADR-RES cells assessed as growth inhibition after 48 hrs by SRB assay; type: functional
[36] = Cytotoxicity against human SKOV3 cells assessed as growth inhibition after 48 hrs by SRB assay; type: functional; conditions: SK-OV-3, 48 h
[37] = Cytotoxicity against human A498 cells assessed as growth inhibition after 48 hrs by SRB assay; type: functional; conditions: A498, 48 h
[38] = Cytotoxicity against human UO31 cells assessed as growth inhibition after 48 hrs by SRB assay; type: functional; conditions: UO-31, 48 h
[39] = Cytotoxicity against human 786-0 cells assessed as growth inhibition after 48 hrs by SRB assay; type: functional; conditions: 786-0, 48 h
[40] = Cytotoxicity against human DU145 cells assessed as growth inhibition after 48 hrs by SRB assay; type: functional; conditions: DU-145, 48 h
[41] = Cytotoxicity against human PC3 cells assessed as growth inhibition after 48 hrs by SRB assay; type: functional; conditions: PC-3, 48 h
[42] = Inhibition of sheep brain tubulin polymerization by DAPI staining-based fluorimetric method; parameters: species or system Ovis aries

COc1ccc(CN2c3ccccc3Sc3ccccc32)c(F)c1
inhibition (Ovis aries): 7% | inhibition of growth at 10 µM [1]: 91% | inhibition of growth at 10 µM [2]: 77% | inhibition of growth at 10 µM [3]: 66% | inhibition of growth at 10 µM [4]: 49% | inhibition of growth at 10 µM [5]: 73% | inhibition of growth at 10 µM [6]: 89% | inhibition of growth at 10 µM [7]: 100% | inhibition of growth at 10 µM [8]: 59% | inhibition of growth at 10 µM [9]: 100% | inhibition of growth at 10 µM [10]: 100% | inhibition of growth at 10 µM [11]: 70% | inhibition of growth at 10 µM [12]: 47% | inhibition of growth at 10 µM [13]: 48% | inhibition of growth at 10 µM [14]: 100% | inhibition of growth at 10 µM [15]: 38% | inhibition of growth at 10 µM [16]: 100% | inhibition of growth at 10 µM [17]: 99% | inhibition of growth at 10 µM [18]: 78% | GI50 [19]: 40 nM | GI50 [20]: 35 nM | GI50 [21]: 4390 nM | GI50 [22]: 10600 nM

COc1ccc(CN2c3ccccc3Sc3ccccc32)c(C(F)(F)F)c1
inhibition (Ovis aries): 15% | inhibition of growth at 10 µM [2]: 76% | inhibition of growth at 10 µM [3]: 67% | inhibition of growth at 10 µM [4]: 50% | inhibition of growth at 10 µM [5]: 59% | inhibition of growth at 10 µM [6]: 90% | inhibition of growth at 10 µM [7]: 100% | inhibition of growth at 10 µM [8]: 67% | inhibition of growth at 10 µM [9]: 92% | inhibition of growth at 10 µM [10]: 100% | inhibition of growth at 10 µM [11]: 96% | inhibition of growth at 10 µM [13]: 46% | inhibition of growth at 10 µM [14]: 94% | inhibition of growth at 10 µM [15]: 56% | inhibition of growth at 10 µM [23]: 69% | inhibition of growth at 10 µM [16]: 96% | inhibition of growth at 10 µM [17]: 100% | inhibition of growth at 10 µM [18]: 77% | GI50 [24]: 604 nM | GI50 [25]: 227 nM | GI50 [26]: 1030 nM | GI50 [19]: 419 nM | GI50 [20]: 681 nM | GI50 [27]: 10900 nM | GI50 [28]: 452 nM | GI50 [29]: 241 nM | GI50 [30]: 431 nM | GI50 [31]: 917 nM | GI50 [32]: 500 nM | GI50 [33]: 513 nM | GI50 [34]: 2160 nM | GI50 [21]: 9750 nM | GI50 [35]: 462 nM | GI50 [36]: 5570 nM | GI50 [37]: 372 nM | GI50 [22]: 9730 nM | GI50 [38]: 3980 nM | GI50 [39]: 9050 nM | GI50 [40]: 2080 nM | GI50 [41]: 546 nM

COc1ccc(CN2c3ccccc3Oc3ccccc32)cc1O
inhibition (Ovis aries): 4% | inhibition of growth at 10 µM [2]: 75% | inhibition of growth at 10 µM [3]: 62% | inhibition of growth at 10 µM [4]: 65% | inhibition of growth at 10 µM [5]: 58% | inhibition of growth at 10 µM [6]: 87% | inhibition of growth at 10 µM [7]: 84% | inhibition of growth at 10 µM [8]: 65% | inhibition of growth at 10 µM [9]: 73% | inhibition of growth at 10 µM [10]: 91% | inhibition of growth at 10 µM [11]: 100% | inhibition of growth at 10 µM [13]: 61% | inhibition of growth at 10 µM [14]: 81% | inhibition of growth at 10 µM [15]: 45% | inhibition of growth at 10 µM [23]: 64% | inhibition of growth at 10 µM [17]: 50% | inhibition of growth at 10 µM [18]: 69%

COc1ccc(CN2c3ccccc3Oc3ccccc32)cc1F
inhibition (Ovis aries): 1% | inhibition of growth at 10 µM [2]: 58% | inhibition of growth at 10 µM [3]: 56% | inhibition of growth at 10 µM [4]: 39% | inhibition of growth at 10 µM [5]: 48% | inhibition of growth at 10 µM [6]: 52% | inhibition of growth at 10 µM [7]: 35% | inhibition of growth at 10 µM [8]: 32% | inhibition of growth at 10 µM [9]: 52% | inhibition of growth at 10 µM [10]: 100% | inhibition of growth at 10 µM [11]: 90% | inhibition of growth at 10 µM [13]: 41% | inhibition of growth at 10 µM [14]: 57% | inhibition of growth at 10 µM [15]: 28% | inhibition of growth at 10 µM [23]: 35% | inhibition of growth at 10 µM [16]: 46% | inhibition of growth at 10 µM [17]: 16% | inhibition of growth at 10 µM [18]: 38%

COc1ccc(CN2c3ccccc3Sc3ccccc32)cc1O
inhibition (Ovis aries): 64% | IC50 [42]: 9200 nM | inhibition of growth at 10 µM [2]: 82% | inhibition of growth at 10 µM [3]: 86% | inhibition of growth at 10 µM [4]: 63% | inhibition of growth at 10 µM [5]: 64% | inhibition of growth at 10 µM [6]: 90% | inhibition of growth at 10 µM [7]: 100% | inhibition of growth at 10 µM [8]: 67% | inhibition of growth at 10 µM [9]: 73% | inhibition of growth at 10 µM [10]: 99% | inhibition of growth at 10 µM [11]: 91% | inhibition of growth at 10 µM [13]: 48% | inhibition of growth at 10 µM [14]: 93% | inhibition of growth at 10 µM [15]: 54% | inhibition of growth at 10 µM [23]: 78% | inhibition of growth at 10 µM [16]: 24% | inhibition of growth at 10 µM [17]: 100% | inhibition of growth at 10 µM [18]: 67% | GI50 [24]: 384 nM | GI50 [25]: 502 nM | GI50 [26]: 364 nM | GI50 [19]: 386 nM | GI50 [20]: 724 nM | GI50 [27]: 966 nM | GI50 [28]: 270 nM | GI50 [29]: 180 nM | GI50 [30]: 427 nM | GI50 [31]: 682 nM | GI50 [32]: 438 nM | GI50 [33]: 304 nM | GI50 [34]: 726 nM | GI50 [21]: 12700 nM | GI50 [35]: 291 nM | GI50 [36]: 521 nM | GI50 [37]: 2710 nM | GI50 [22]: 1290 nM | GI50 [38]: 752 nM | GI50 [39]: 838 nM | GI50 [40]: 374 nM | GI50 [41]: 503 nM
